From US9089139B2, “Agri-horticultural pest control compositions comprising 4-(3-butynyl)aminopyrimidine derivatives” (SDS Biotech K. K., priority 2011, dated 2015) come the findings set out here.

Read-outs that look alike come from different tables or passages of the source.

The subject of data set [1] is Pseudoperonospora cubensis. Put plainly: Control effect against Pseudoperonospora cubensis on cucumber seedlings (control index as in Test 1). The format is in vivo. An excerpt: (§1) The expected efficacies of the combinations of the individual active compounds can be determined using Colby's formula, which is described below [Colby, S. R. “Calculating synergistic and antagonistic responses of herbicide combinations,” Weeds 15, 20-22 (1967)]: Colby's formula: E=A+B−(A×B/100) E is the predicted efficacy (control index) with reference to the untreated control when using the mixture of the active compound X at the concentration x and the active compound Y at the concentration y; A is the efficacy (control index) with respect to the untreated control when using the active compound X at the concentration x; B is the efficacy (control index) with respect to the untreated control when using the active compound […] at the concentration y.
(§2) Potted young seedlings of cucumber (variety: SAGAMI HANJIRO; in two-leaf stage) were sprayed with invention compounds formulated in accordance with Preparations and the existing antimicrobial active compounds listed in Table 3 (all compounds are identified by associated letters of the alphabet) after they were diluted with water to predetermined concentrations so that they would serve as active compounds; a spray gun was used to provide a spray rate of 15 ml per pot. After air-drying, the seedlings were inoculated with conida of Sphaerotheca fuliginea by spraying a suspension of the conida. Thereafter, the seedlings were cultivated for 14 days in a greenhouse and the percentage of diseased area was investigated for each leaf; based on the result of this investigation, the control index was calculated using the following formula: Control index={(percentage of diseased area on the untreated control−percentage of diseased area on treated sample)/percentage of diseased area on the untreated control}×100
Potted young seedlings of cucumber (variety: SAGAMI HANJIRO; in two-and-a-half leaf stage) were sprayed with invention agri-horticulatural pest control compositions formulated in accordance with Preparations and the existing antimicrobial active compounds listed in Table 5 (all compounds are identified by associated letters of the alphabet) after they were diluted with water to predetermined concentrations so that they would serve as active compounds; a spray gun was used to provide a spray rate of 15 ml per pot. After air-drying, the seedlings were inoculated with conida of Pseudoperonospora cubensis by spraying a suspension of the conida. Immediately thereafter, the seedlings were held for a day under the conditions of 21° C. and 100% humidity. The seedlings were then placed at room temperature and 3 days later, the percentage of diseased area was investigated for each leaf; based on the result of this investigation, the control index was calculated as in Test 1.

A further data set has as its system Sphaerotheca fuliginea. Put plainly: Test 1: control effect against powdery mildew on cucumber (control index). Format: in vivo, Sphaerotheca fuliginea on cucumber (variety: SAGAMI HANJIRO). Conditions: for pest or weed control at 10 ppm: read-out: Control index.
Excerpt: as §1, §2

Another data set deals with Aphis gossypii. The data set is described as follows: Test 3: insecticidal effect on Aphis gossypii (mortality rate). Format: in vivo. Conditions: Aphis gossypii, 48 h, read-out: Observed value Mortality rate.
Excerpt: as §1
Invention compounds and the existing insecticidal active compounds shown in Table 7 (hereinbelow, the compound names are identified by associated letters of the alphabet) were diluted with water to predetermined concentrations so that they would serve as active ingredients. Cucumber leaves with a diameter of 3 cm were placed on plastic cups filled with 0.5% soft agar and five adult aphids were released to feed on the leaves. After standing overnight, the adult insects were removed and the number of nymph as an offspring was counted; each of the prepared liquid samples of insecticide was sprayed in 0.4 ml portions and two days later, the number of dead insects was countd to calculate the mortality rate. The expected efficacies of the combinations of the individual active compounds were calculated by Colby's formula.

Where [2] appears, read: individual active compound, test concentration 10 ppm.
The mark [3] stands for this setting: Podosphaera fuliginea, 336 h, individual active compound, test concentration 1 ppm.
The mark [4] stands for this setting: individual active compound, test concentration 1 ppm.
The mark [5] stands for this setting: Podosphaera fuliginea, 336 h, individual active compound, test concentration 100 ppm.
The mark [6] stands for this setting: Podosphaera fuliginea, 336 h, individual active compound, test concentration 10 ppm.

With `N#Cc1c(Cl)c(Cl)c(Cl)c(C#N)c1Cl` [Aa: Chlorothalonil, chlorothalonil], the pest or weed control at 0.5 ppm in data set [1] (Pseudoperonospora cubensis, 72 h, individual active compound, test concentration 0.5 ppm, read-out: Observed value Control index) came out at 49%. Besides, the pest or weed control at 5 ppm in the data set on Sphaerotheca fuliginea (Podosphaera fuliginea, 336 h, individual active compound, test concentration 5 ppm) was found to be 48%. Regarding `CCCCCCCCCCCCc1ccc(S(=O)(=O)O)cc1.CCCCCCCCCCCCc1ccc(S(=O)(=O)O)cc1.CCCCCCCCCCCCc1ccc(S(=O)(=O)O)cc1.NC(N)=NCCCCCCCCNCCCCCCCCN=C(N)N` [Ab: Iminoctadine albesilate, iminoctadine albesilate], the Control index with Sphaerotheca fuliginea (individual active compound, test concentration 2 ppm) worked out at 41. On to `COCC(=O)N(c1c(C)cccc1C)[C@H](C)C(=O)OC` [Ba: Metalaxyl M, metalaxyl-M], for which the “Observed value Control index” value in data set [1] (setting [2]) was 35. Consider `COC(=O)NC(=S)Nc1ccccc1NC(=S)NC(=O)OC` [Ca: Thiophanate-methyl, thiophanate-methyl], for which the pest or weed control at 2 ppm in the data set with Sphaerotheca fuliginea (Podosphaera fuliginea, 336 h, individual active compound, test concentration 2 ppm) was found to be 40%. Regarding `CC(C)CC(C)c1sccc1NC(=O)c1cn(C)nc1C(F)(F)F` (stereo not shown) [Da: Penthiopyrad, penthiopyrad], the pest or weed control at 1 ppm in the data set on Sphaerotheca fuliginea (setting [3]) came out at 51%. Turning to `CO/C=C(/C(=O)OC)c1ccccc1Oc1cc(Oc2ccccc2C#N)ncn1` [Ea: Azoxystrobin, azoxystrobin], the “Observed value Control index” value in data set [1] (setting [4]) amounted to 45. For the same molecule, the Control index in the data set on Sphaerotheca fuliginea (individual active compound, test concentration 100 ppm) came to 21.

As to `CO/N=C(/C(=O)OC)c1ccccc1COc1ccccc1C` [Eb: Kresoxim-methyl, kresoxim-methyl], the pest or weed control at 1 ppm in data set [1] (Pseudoperonospora cubensis, 72 h, individual active compound, test concentration 1 ppm, read-out: Observed value Control index) is 42%. Also, in the data set with Sphaerotheca fuliginea (setting [5]), the pest or weed control at 100 ppm was 29%.

As to `CON=C(C(=O)OC)c1ccccc1CON=C(C)c1cccc(C(F)(F)F)c1` [Ec: Trifloxystrobin, trifloxystrobin], the pest or weed control at 100 ppm with Sphaerotheca fuliginea (setting [5]) is 24%. Regarding `COC(=O)N(OC)c1ccccc1COc1ccn(-c2ccc(Cl)cc2)n1` [Ed: Pyraclostrobin, pyraclostrobin], in the data set on Sphaerotheca fuliginea (setting [5]), the pest or weed control at 100 ppm is 22%. As for `CCC(Nc1ncnc(C)c1Cl)c1ccc(OC(F)F)cc1` (stereo not shown) [Fa: Diflumetorim, diflumetorim], in the data set on Sphaerotheca fuliginea (setting [3]), the pest or weed control at 1 ppm is 42%.

For `Cc1ccc(-c2c(Cl)nc(C#N)n2S(=O)(=O)N(C)C)cc1` [Fb: Cyazofamid, cyazofamid], the pest or weed control at 0.1 ppm in data set [1] (Pseudoperonospora cubensis, 72 h, individual active compound, test concentration 0.1 ppm, read-out: Observed value Control index) was 50%.

With `Cc1c(Br)c2ccc(F)cc2n1S(=O)(=O)c1ncn(S(=O)(=O)N(C)C)n1` [Fc: Amisulbrom, amisulbrom], the “Observed value Control index” value in data set [1] (individual active compound, test concentration 0.1 ppm) is listed as 37.

As for `CC1COC(Cn2cncn2)(c2ccc(Oc3ccc(Cl)cc3)cc2Cl)O1` (stereo not shown) [Ha: Difenoconazole, difenoconazole], the pest or weed control at 10 ppm in the data set on Sphaerotheca fuliginea (setting [6]) was 27%. With `CC(C)(C)C(O)(CCc1ccc(Cl)cc1)Cn1cncn1` (stereo not shown) [Hb: Tebuconazole, tebuconazole], the pest or weed control at 10 ppm in the data set on Sphaerotheca fuliginea (setting [6]) was 42%.

As for `CC(C)(C)C(=O)C(Oc1ccc(Cl)cc1)n1cncn1` (stereo not shown) [Hc: Triadimefon, triadimefon], the pest or weed control at 100 ppm with Sphaerotheca fuliginea (setting [5]) came to 21%. Regarding `CCCOC/C(=N\c1ccc(Cl)cc1C(F)(F)F)n1ccnc1` [Hd: Triflumizole, triflumizole], the pest or weed control at 10 ppm with Sphaerotheca fuliginea (setting [6]) is 39%. Consider `CC(Cc1ccc(C(C)(C)C)cc1)CN1C[C@@H](C)O[C@@H](C)C1` (stereo partly shown) [He: Fenpropimorph, fenpropimorph], for which, in the data set on Sphaerotheca fuliginea (setting [5]), the pest or weed control at 100 ppm is 12%. Regarding `Fc1ccc(Oc2ccnc3cc(Cl)cc(Cl)c23)cc1` [Ia: Quinoxyfen, quinoxyfen], the pest or weed control at 1 ppm in the data set on Sphaerotheca fuliginea (setting [3]) was 39%. Turning to `COc1ccc(C(=CC(=O)N2CCOCC2)c2ccc(Cl)cc2)cc1OC` [Ja: Dimethomorph, dimethomorph], the pest or weed control at 5 ppm in data set [1] (Pseudoperonospora cubensis, 72 h, individual active compound, test concentration 5 ppm, read-out: Observed value Control index) amounted to 21%.

In the case of `CC(C)OC(=O)N[C@H](C(=O)N[C@H](C)c1nc2ccc(F)cc2s1)C(C)C` [Jb: Benthiavalicarb-isopropyl, benthiavalicarb], the pest or weed control at 0.5 ppm in data set [1] (Pseudoperonospora cubensis, 72 h, read-out: Observed value Control index) came out at 12%. For the molecule `C#CCOc1ccc(CCNC(=O)C(OCC#C)c2ccc(Cl)cc2)cc1OC` (stereo not shown) [Jc: Mandipropamid, mandipropamid], the “Observed value Control index” value in data set [1] (individual active compound, test concentration 0.5 ppm) was 21. As to `CSC(=O)c1cccc2nnsc12` [Ma: Acibenzolar-S-methyl, acibenzolar-5-methyl], in the data set with Sphaerotheca fuliginea (setting [2]), the Control index was 38. For the molecule `CCNC(=O)NC(=O)/C(C#N)=N/OC` [Na: Cymoxanil, cymoxanil], in data set [1] (Pseudoperonospora cubensis, 72 h, individual active compound, test concentration 10 ppm, read-out: Observed value Control index), the pest or weed control at 10 ppm came out at 45%. `Cc1ccc2nc3sc(=O)sc3nc2c1` [Nb: Chinomethionate, chinomethionat]: in the data set with Sphaerotheca fuliginea (Podosphaera fuliginea, 336 h), the pest or weed control at 10 ppm stood at 38%. As for `O=C(Cc1ccccc1)N/C(=N\OCC1CC1)c1c(C(F)(F)F)ccc(F)c1F` [Nc: Cyflufenamid, cyflufenamid], in the data set with Sphaerotheca fuliginea (setting [3]), the pest or weed control at 1 ppm is 49%. On to `COc1ccccc1N1CCS/C1=C(/C#N)Sc1cc(C(F)(F)F)ccc1F` [Nd: Flutianil, flutianil], for which the Control index in the data set with Sphaerotheca fuliginea (setting [4]) came out at 42. With `COP(=O)(NC(C)=O)SC` (stereo not shown) [P: Acephate, acephate, reference compound], the pest or weed control at 10 ppm in the data set on Aphis gossypii amounted to 47%. Take `CCOC(=O)c1sc(C#CCCNc2ncnc3ccccc23)nc1C` [compound 214]: the melting point (usually the temperature, or range, at which the solid turns liquid) fell in the range of 139 to 140 °C. The same measure, in the same setting: as for `COc1cccc(Oc2nc(C#CCCNc3ncnc4ccccc34)cs2)c1` [compound 216], the figure is 77 to 79 °C; as for `COc1ccc(Oc2nc(C#CCCNc3ncnc4ccccc34)cs2)cc1` [compound 217], 150 to 152 °C.

In the case of `FC(F)(F)c1ccccc1Oc1nc(C#CCCNc2ncnc3ccccc23)cs1` [compound 218], the melting point fell in the range of 159 to 161 °C. With `FC(F)(F)c1cccc(Oc2nc(C#CCCNc3ncnc4ccccc34)cs2)c1` [compound 219], the melting point is 106 to 108 °C. Still for that read-out and setting: the figure for `FC(F)(F)c1ccc(Oc2nc(C#CCCNc3ncnc4ccccc34)cs2)cc1` [compound 220] is 137 to 139 °C; for `N#Cc1cccc(Oc2nc(C#CCCNc3ncnc4ccccc34)cs2)c1` [compound 222] it is 137 to 139 °C; for `N#Cc1ccc(Oc2nc(C#CCCNc3ncnc4ccccc34)cs2)cc1` [compound 223] it is 55 to 57 °C. With `Fc1cccc(Oc2nc(C#CCCNc3ncnc4ccccc34)cs2)c1` [compound 225], the melting point fell in the range of 134 to 136 °C. Same read-out and setting: as for `CC(CC#Cc1cscn1)Nc1ncnc2ccccc12` (stereo not shown) [compound 291], the figure is 142 to 145 °C; as for `FC(F)(F)c1ccccc1C#CCC(Nc1ncnc2ccccc12)c1ccccc1` (stereo not shown) [compound 302], 150 to 152 °C; as for `FC(F)(F)c1ccccc1C#CCCNc1ncnc2cc(Cl)ccc12` [compound 308], 153 to 154 °C. `COCc1ccccc1C#CCCNc1ncnc2ccc(I)cc12` [compound 322]: the melting point was in the range of 121 to 123 °C. The molecule `COCc1ccccc1C#CCCNc1ncnc2c(Cl)cc(Cl)cc12` [compound 338] gave a melting point of 161 to 162 °C. The molecule `Clc1ncnc(NCCC#Cc2ccccc2)c1Cl` [compound 357] came in with a melting point of 122 to 123 °C. The same measure, in the same setting: as for `Clc1cc(NCCC#Cc2ccccc2)ncn1` [compound 358], the figure is 118 to 120 °C; as for `Clc1ncnc(NCCC#Cc2ccccc2)c1Cc1ccccc1` [compound 372], 157 to 158 °C. On to `C(#Cc1ccccc1)CCNc1ncnc2[nH]cnc12` [compound 378], for which the melting point was in the range of 207 to 208 °C. With mancozeb [Ac: Manzeb], the “Observed value Control index” value in data set [1] (setting [4]) came out at 52.
